Test results reported in patent US20110171279A1, “POLYETHYLENIMINE BIOCIDES” (NDSU RESEARCH FOUNDATION, priority 2009, published 2011).
In brackets after ≈: the same amount, converted by molar mass. Where two headings read alike, the source gives them in different places.

Key:
Format in all cases: cell-based
Halomonas pacifica = assay: Growth reduction / MIC test against Halomonas pacifica; details: for MIC: Bisbaumannia pacifica; for Percent reduction in growth of Halomonas pacifica: Table 6
Method: (§1) The antimicrobial properties of the Formulations were determined by measuring the minimum inhibitory concentration (MIC) or by using an adaptation of the MIC test. […] Additional details of the MIC method can be found at Andrews, J. M., Journal of Antimicrobial Chemotherapy (2001) 48, 5-16, incorporated herein by reference in its entirety.
In accordance with the MIC test, working solutions for each Formulation were prepared by dissolving 100 mg of each Formulation in 10 mL of methanol (Sigma-Aldrich) to generate a 10 mg/mL solution. Next, 10 ml of Guillard's F/2 medium was spiked with 200 μL of the 10 mg/mL Formulation solution to achieve a final concentration of 0.2 mg/mL.
0.2 mL of each H. pacifica concentration was added in triplicate to a 96-well plate. Additionally, 0.2 mL of Guillard's F/2 medium without any H. pacifica or Formulation and 0.2 mL of Guillard's F/2 medium with H. pacifica, but no Formulations, served as negative and positive growth controls, respectively. The 96-well plates were placed in an illuminated growth cabinet with a 16:8 light:dark cycle (photon flux density 33 μmol m^−2 s^−1) for 48 hrs at 18° C. and measured for chlorophyll fluorescence using a multi-well plate spectrophotometer (excitation: 360 nm; emission: 670 nm). The efficacy of each Formulation was measured by determining the percent reduction in diatom growth as a function of Formulation concentration.
(§2) The antimicrobial activity of Formulations 10-12, also derived from ETCS and PEI, was determined toward a suite of marine microorganisms, namely, Pseudoalteromonas atlantica, Cellulophaga lytica, Cobetia marina, and Halomonas pacifica. The antimicrobial activity of Formulations 10-12 was determined toward these marine microorganisms according to the methods of EXAMPLES 5-7. The MIC for each Formulation against each strain is compared to that of the PEI, ETCS, and TCS (alone) in Table 7.

Cobetia marina = assay: MIC test against Cobetia marina
Method: as §1, §2

[1] = system: Staphylococcus epidermidis; assay: Growth reduction / MIC test against Staphylococcus epidermidis in tryptic soy broth, absorbance 600 nm; details: for Percent reduction in growth of Staphylococcus epidermidis: Table 2; for MIC: Staphylococcus epidermidis, read-out: S. epidermidis MIC
Method: as §1
In accordance with the MIC test, working solutions for each Formulation were prepared by dissolving 100 mg of each Formulation in 10 mL of methanol (Sigma-Aldrich) to generate a 10 mg/mL solution. Next, 10 ml of tryptic soy broth was spiked with 200 μL of the mg/mL Formulation solution to achieve a final concentration of 0.2 mg/mL.
0.2 mL of each concentration of each Formulation (spiked with S. epidermidis) was added in triplicate to a 96-well plate. Additionally, 0.2 mL of tryptic soy broth without any S. epidermidis or Formulation and 0.2 mL of tryptic soy broth with S. epidermidis, but no Formulations, served as negative and positive growth controls, respectively. Plates were then placed in an incubator, at 37° C. for 24 hrs (with shaking), and then measured for growth by taking absorbance measurements at 600 nm with a multi-well plate spectrophotometer (Synergy HT microplate reader, BioTek Instruments, Winooski, Vt.). The efficacy of each Formulation was measured by determining the percent reduction in bacterial growth as a function of Formulation concentration.
For comparison purposes a benzylpiperidino biocide (“Reference 1”) was prepared using ETCS and synthetic methods similar to those described in U.S. Pat. No. 5,036,077, issued Jul. 30, 1991, and incorporated by reference in its entirety. To make Reference 1, 3.9 g of ETCS and 2 g of 4-benzylpiperidine were reacted in 30 mL of methanol. The mixture was heated at 65° C. for 48 hours. Reaction completion was confirmed by ^1H NMR, ^13C NMR, HMQC (2D) NMR and elemental analysis. The antimicrobial activity of Formulations 69-77 and Reference 1 toward S. epidermidis was measured by determining the percent reduction in bacterial growth as a function of concentration, as was done above in EXAMPLE 3.

Navicula incerta = assay: Growth reduction / MIC test against Navicula incerta in Guillard's F/2 medium, chlorophyll fluorescence; details: Table 12; read-out: N. incerta MIC
[2] = Formulation Concentration 0.78125 μg/mL
[3] = Formulation Concentration 1.5625 μg/mL
[4] = Formulation Concentration 3.125 μg/mL
[5] = Formulation Concentration 6.25 μg/mL
[6] = Formulation Concentration 12.5 μg/mL
[7] = Formulation Concentration 25 μg/mL
[8] = Formulation Concentration 50 μg/mL
[9] = Formulation Concentration 100 μg/mL

Row | SMILES | Percent reduction in growth of Halomonas pacifica (Halomonas pacifica; [2]) [%] | Percent reduction in growth of Halomonas pacifica (Halomonas pacifica; [3]) [%] | Percent reduction in growth of Halomonas pacifica (Halomonas pacifica; [4]) [%] | Percent reduction in growth of Halomonas pacifica (Halomonas pacifica; [5]) [%] | Percent reduction in growth of Halomonas pacifica (Halomonas pacifica; [6]) [%] | Percent reduction in growth of Halomonas pacifica (Halomonas pacifica; [7]) [%] | Percent reduction in growth of Halomonas pacifica (Halomonas pacifica; [8]) [%] | Percent reduction in growth of Halomonas pacifica (Halomonas pacifica; [9]) [%] | Percent reduction in growth of Staphylococcus epidermidis [1, 2] [%] | Percent reduction in growth of Staphylococcus epidermidis [1, 3] [%] | Percent reduction in growth of Staphylococcus epidermidis [1, 4] [%] | Percent reduction in growth of Staphylococcus epidermidis [1, 5] [%] | Percent reduction in growth of Staphylococcus epidermidis [1, 6] [%] | Percent reduction in growth of Staphylococcus epidermidis [1, 7] [%] | Percent reduction in growth of Staphylococcus epidermidis [1, 8] [%] | Percent reduction in growth of Staphylococcus epidermidis [1, 9] [%] | other results
1 | Clc1ccc(Oc2ccc(Cl)cc2OCC2CO2)c(Cl)c1 (centres unmarked) [ETCS, 2-((5-chloro-2-(2,4-dichlorophenoxy)phenoxy)methyl)oxirane] | 0.00 | 11.15 | 11.78 | 12.90 | 16.72 | 16.08 | 7.01 | 0.00 | 0.00 | 9.43 | 8.30 | 16.36 | 18.64 | 17.39 | 22.16 | 9.55 | MIC (Halomonas pacifica; Table 7, read-out: H. pacifica MIC): > 100 µg/mL; H. pacifica MIC (Halomonas pacifica; Table 12): >100 µg/mL; MIC (Cobetia marina; Table 7, read-out: C. marina MIC): > 100 µg/mL; MIC ([1]; Table 12): > 100 µg/mL; MIC (Navicula incerta): > 100 µg/mL
2 | Oc1cc(Cl)ccc1Oc1ccc(Cl)cc1Cl [TCS, triclosan] | 0.00 | 0.00 | 0.00 | 9.94 | 17.32 | 37.65 | 93.07 | 92.77 | 81.36 | 86.70 | 92.70 | 92.96 | 93.09 | 92.83 | 93.09 | 93.35 | MIC (Halomonas pacifica; read-out: H. pacifica MIC, Table 7): 50 to 100 µg/mL (≈ 173 to 345 µM); MIC (Halomonas pacifica; read-out: H. pacifica MIC, Table 12): 100 µg/mL (≈ 345 µM); MIC (Cobetia marina; read-out: C. marina MIC): > 100 µg/mL; MIC [1]: 0.781 µg/mL
